# Source: patent US20240059739A1, “PEPTIDES FOR INCREASING DRUG DELIVERY TO CANCER” (Chapman University, priority 2022, published 2024)
# Test system: human melanoma A375 tumor xenografts and organs
# Assay: In vivo and ex vivo imaging of biodistribution in mice bearing A375 xenografts
# Parameters: species or system athymic nude mice
# Details: ex vivo imaging
# Protocol: FIG. 4A and FIG. 4B-1 and FIG. 4B-2 show in vivo and ex vivo organ distribution images of VivoTag 680 XL-labeled D-aa KK-11 in athymic nude mice bearing human melanoma A375 tumors. Saline or VivoTag-KK-11 in a dose of 8 μg per mouse was injected into the mice via the tail vein (n=2 for each time point).
# The top panels represent the scanned images of the tumor section area in coronal views. The bottom-row pictures display the fluorescence image in trans-axial views: arrows point to the spine, and circles mark the xenograft tumors.
# Organs including tumor xenografts (T), liver (L), spleen (S), heart and lungs (H+L), kidneys (K), and brain (B) were excised and imaged using the IVIS Spectrum imaging system. Representative fluorescence images of different organs show peptide distribution at different time points as indicated.
# Ex vivo and in vivo imaging. The study was carried out in compliance with Animal Research: Reporting of In Vivo Experiments (ARRIVE) guidelines. All the animal procedures were approved by the Institutional Animal Care and Use Committee (IACUC) at Chapman University and conducted in compliance with the policies of Chapman University, and federal, state, and local animal welfare authorities. Male and female athymic nude mice (4-6 weeks old) were kept (5 in each cage) in a pathogen-free environment. Approximately 10^6 human melanoma A375 cells (0.1 mL in normal saline), mixed with 0.1 mL cold Matrigel (#354248; Corning, Corning, NY), were injected subcutaneously in the flank. The tumor size was measured with a caliper, and body weight was recorded once a week. When the tumor size reached approximately 800-1000 mm^3 as calculated using the following formula: [Length×(Width^2)]/2 (in mm), mice were processed for in vivo or ex vivo imaging.
# For in vivo imaging, normal saline or VivoTag-KK-11 at a dose of 8 μg per mouse was injected into the mice via the tail vein (n=2 for each time point). The animals were then scanned at different time intervals (0.5, 2, 6, and 24 h) using an IVIS Spectrum in vivo imaging system (PerkinElmer, Waltham, MA). The mice were imaged for 0.5 sec, 10 bin, level B at an emission wavelength of 688±5 nm. Imaging was limited to no more than once a day and was conducted under continuously maintained isoflurane. Mice were maintained on alfalfa-free diets to minimize the background fluorescence. All the study animals survived through the in vivo imaging procedure.
# For ex vivo imaging at defined time intervals (5, 15, 30 min, followed by 1, 1.5, 2, 3, 4, 6, 24, and 48 h) following fluorescence conjugate injection, animals were euthanized via carbon dioxide inhalation (n=2 for each time point); tumor, liver, spleen, heart, lungs, brain, and kidneys were collected and briefly rinsed with saline. The organs were then imaged for 0.5 sec, 10 bin, level B at an emission wavelength of 688±5 nm using an IVIS Spectrum imaging system.
Molecule,brain penetration,"time by which cleared from other organs (lungs, heart, spleen) [h]",time detected in kidneys
VivoTag- Aβ-VPWxEPAYQrFL [VivoTag-KK-11],no brain penetration was observed,≤ 6,up to 48 h

# Same assay, conditions: ex vivo imaging, 8 μg per mouse, tail vein
row,Molecule,time at which fluorescence is evident in tumor xenografts [min]
1,VivoTag- Aβ-VPWxEPAYQrFL [VivoTag-KK-11],≤ 5

# Same assay, conditions: in vivo IVIS CT-fluorescence imaging of live mice
Molecule,time by which distributed to the xenograft tumor [min],time fluorescence remained detectable in tumor xenografts [h]
VivoTag- Aβ-VPWxEPAYQrFL [VivoTag-KK-11],≤ 30,25

# Test system: A375 melanoma cells
# Assay: In vitro cytotoxicity detected by MTT colorimetric assay
# Format: cell-based, human
# Details: Homo sapiens, A-375, 72 h, DOX 0.5 μM alone, 72 h, A375; read-out: cell viability, of control
# Protocol: The bar represents the average fluorescence density of three cell lines (A375, Sk-mel-28, and wm3211 cells) detected by fluorescence-activated cell sorting (FACS) analysis. The cells were incubated with FITC-labeled peptide for […] at 37° C. (0.5 μM, grey bar; 1 μM, dark bar). The control is cells incubated with FITC alone. […] Cells were either treated with DOX or co-treated with DOX and KK-11 (1 μM) for 72 h (KK-11+DOX) or pretreated with KK-11 for 4 h, then washed away following a DOX 72 h treatment (KK-11 to DOX). Control is DMSO or KK-11 alone. Cell viability was detected by a MTT colorimetric assay. Statistical analysis was performed with a student's t-test, and error bars denote mean±SD; **, p<0.01; ***, p<0.001 compared to DOX alone. […] Cells were treated with MAC-3-190 at various concentrations with or without 1 μM KK-11 for 72 h. Cell viability was detected by MTT assay. The assays were repeated independently at least three times.
# In vitro cytotoxicity detected by MTT colorimetric assay. Cells were seeded in a 96-well plate and allowed to adhere overnight prior to adding the compound. After 72 h of treatment in serum-free media, an MTT solution was added to each well to give a final concentration of 0.5 mg/mL and was incubated for 3 h. Formed crystals were solubilized, and the absorbance was measured at 595 nm.
row,Molecule,viability at 0.5 µM [%]
1,"COc1cccc2c1C(=O)c1c(O)c3c(c(O)c1C2=O)C[C@@](O)(C(=O)CO)C[C@@H]3O[C@H]1C[C@H](N)[C@H](O)[C@H](C)O1 [DOX, doxorubicin]",62

# Same assay, conditions: Homo sapiens, A-375, 72 h, DOX 0.5 μM co-treatment with KK-11 (1 μM), 72 h, A375; read-out: cell viability, of control
row,Molecule,viability at 1 µM [%]
1,"COc1cccc2c1C(=O)c1c(O)c3c(c(O)c1C2=O)C[C@@](O)(C(=O)CO)C[C@@H]3O[C@H]1C[C@H](N)[C@H](O)[C@H](C)O1 [DOX, doxorubicin]",40

# Same assay, conditions: Homo sapiens, A-375, 72 h, DOX 1 μM alone, 72 h, A375; read-out: cell viability (cells survived)
row,Molecule,viability at 1 µM [%]
1,"COc1cccc2c1C(=O)c1c(O)c3c(c(O)c1C2=O)C[C@@](O)(C(=O)CO)C[C@@H]3O[C@H]1C[C@H](N)[C@H](O)[C@H](C)O1 [DOX, doxorubicin]",24

# Same assay, conditions: Homo sapiens, A-375, 72 h, DOX 1 μM in combination with KK-11 (1 μM), 72 h, A375; read-out: cell viability, of control
row,Molecule,viability at 1 µM [%]
1,"COc1cccc2c1C(=O)c1c(O)c3c(c(O)c1C2=O)C[C@@](O)(C(=O)CO)C[C@@H]3O[C@H]1C[C@H](N)[C@H](O)[C@H](C)O1 [DOX, doxorubicin]",14

# Same assay, conditions: KK-11 and DOX sequentially (KK-11 pretreatment 4 h, washed, then DOX 72 h)
row,Molecule,change of DOX cytotoxicity
1,"COc1cccc2c1C(=O)c1c(O)c3c(c(O)c1C2=O)C[C@@](O)(C(=O)CO)C[C@@H]3O[C@H]1C[C@H](N)[C@H](O)[C@H](C)O1 [DOX, doxorubicin]",failed to produce any changes on DOX cytotoxicity

# Test system: human melanoma cell lines (A375, Sk-mel-28, wm115) compared to normal human HEK-293 cells
# Assay: Peptide array-whole cell binding assay (CyQUANT fluorescence)
# Format: cell-based
# Details: average fluorescent intensity of melanoma cells (A375, Sk-mel-28, wm115) bound to peptide divided by that of HEK-293 cells bound to same peptide
# Text: Peptide array synthesis. Fifty-three peptide sequences were synthesized in duplicate on derivatized cellulose membrane (Intavis, Germany) using a ResPep SL Autospot robot. The detailed method was explained previously (Ahmed et al. Anal Chem. 82:7533-7541, 2010; Hossein-Nejad-Ariani et al. Sci Rep. 9:2723, 2019). Briefly, the sequences of peptides were entered in the robot software, and 384 spot synthesis mode was selected for this library. First, the membrane was dipped in DMF for an hour followed by transfer and support to the holder of the robot on filter paper. Then the membrane was washed with ethanol and subjected to a vacuum to remove any bubbles under the membrane. The Fmoc strategy was used for peptide synthesis. DIC and Oxyma pure were used as coupling reagent and racemization suppressor, respectively. After each coupling, capping of unreacted amino acids was done using acetic anhydride (3%), followed by 20% piperidine for Fmoc deprotection. The C-terminal end of all peptides were bound to the membrane. Following the synthesis, the membrane was dipped in deprotection solution containing 15 mL TFA, 15 mL DCM, 900 μL TIPS, and 600 μL water, and kept for 3 h at room temperature. Next, membranes were thoroughly washed with DCM, DMF, and ethanol. Finally, they were air dried and kept in a sealed bag at −20° C. until use.
# Peptide array cell binding assay. The sequential steps of the assay are as described in a previous publication (Ahmed et al. 2010; Soudy et al. J Med Chem. 54:7523-7534, 2011). The membrane was dipped in ethanol for 30 sec to remove any precipitation of hydrophobic peptides. Then the membrane was dipped in sterile PBS at pH 7.4 for 30 min. The cells (75×10^3 cells/mL) were seeded directly on the membrane in a sterile plate and incubated at 37° C. for 4 h. After washing off the unbound cells with sterile PBS, pH 7.4, the membrane was frozen at −80° C. for 2 h. Subsequently, it was defrosted at room temperature and incubated in CyQUANT solution at 37° C. for 30 min following the manufacturer's protocol. The membrane was then washed with sterile PBS and air-dried.
# Membranes were scanned using the ChemiDoc™ XRS+system (Bio-Rad) to analyze the fluorescence intensity of each spot. The setting was adjusted based on the excitation and emission wavelength of the CyQUANT dye at 465 nm and 535 nm, respectively. The fluorescence intensity (FI) was normalized by the FI of non-cancerous HEK-293 cells.
# A library of 53 peptides was synthesized in an array format on a cellulose membrane using SPOT synthesis (Table 1). The peptide library was designed starting with five lead cancer cell targeting peptides, Arg peptide (1, Table 1), p160 analogue (11), RGD (16), GE11 (20), and LSD (37). Conservative substitutions, deletion from the N- or C-terminus, alanine scan, and scrambling of amino acids were used to design the analogues for the library. The peptides were screened for specific binding to three human melanoma cell lines. The cells were incubated with the cellulose membranes with conjugated peptides followed by incubation with CyQUANT fluorescence dye. A brief schematic for the peptide array-whole cell binding assay for screening peptides with high affinity for melanoma cells is shown in FIG. 2A. The relative cell adhesion capacities of the peptides to A375 (FIG. 2B), Sk-mel-28 (FIG. 2C), and wm115 were estimated based on the fluorescence of the bound melanoma cells compared to normal human HEK-293 cells.
row,Molecule,Fluorescence Ratio
1,ADRSKGKLA [Peptide 39],1.27
2,YHWYGYTPQAVI [Peptide 31],1.33
3,RGDPAYQGRFL [Peptide 19],1.35
4,YHWYGTPQNVI [Peptide 20],1.20
5,YHWYGATPQNVI [Peptide 27],1.19
6,YHWYGYTPQNVA [Peptide 33],1.35
7,CLSDGKRRC [Peptide 52],1.27
8,YHWYGYTPQDVI [Peptide 35],1.35
9,YGPWYNHYITQV [Peptide 22],1.28
10,CLSDGKRKC [Peptide 37],1.29
11,CLSDGARKC [Peptide 46],1.35
12,YHWYGYTAQNVI [Peptide 29],1.32
13,RVPWLEAPYA [Peptide 14],1.42
14,GRRPRPRPAP [Peptide 10],1.31
15,YHWAGYTPQNVI [Peptide 26],1.29
16,WLSDGKRKC [Peptide 53],1.12
17,CLSDGKRKA [Peptide 49],1.57
18,YHWYGYAPQNVI [Peptide 28],1.26
19,ALSDGKRKA [Peptide 40],1.23
20,CLSDGKAKC [Peptide 47],1.27
21,RGDAAYQRFL [Peptide 16],1.47
22,CLSEGKRKC [Peptide 50],1.38
23,GRAPRPRPRP [Peptide 7],1.47
24,CLADGKRKC [Peptide 43],1.26
25,FVPWLEAPYA [Peptide 15],1.61
26,RGEPAYQGRFL [Peptide 18],1.24

row,Molecule,Fluorescence Ratio
1,YHWYGYTPANVI [Peptide 30],1.30
2,GRRPRPRPRPWW [Peptide 3],1.50
3,ALSGKRKC [Peptide 41],1.32
4,YAWYGYTPQNVI [Peptide 24],1.15
5,AGRKLDSKA [Peptide 38],1.39
6,YHWYGYTPQNAI [Peptide 32],1.29
7,GRRPRPRPRPW [Peptide 2],1.60
8,AHWYGYTPQNVI [Peptide 23],1.31
9,WQTNYIHPYVYG [Peptide 21],1.21
10,CLSDAKRKC [Peptide 45],1.22
11,EPAAYQRFTA [Peptide 13],1.39
12,WXEAAYQRFL [Peptide 12],1.31
13,CLSDGKRAC [Peptide 48],1.12
14,GARPRPRPRP [Peptide 6],1.37
15,GRRPAPRPRP [Peptide 8],1.57
16,GRRPRPRPRPWWW [Peptide 4],1.46
17,CLSAGKRKC [Peptide 44],1.44
18,CASDGKRKC [Peptide 42],1.25
19,RGEPAYQRFL [Peptide 17],1.30
20,GRRPRPRPRPWWWW [Peptide 5],1.43
21,GRRPRPAPRP [Peptide 9],1.51
22,CLSDGRRKC [Peptide 51],1.32
23,YHAYGYTPQNVI [Peptide 25],1.28
24,YHWYGYTPENVI [Peptide 34],1.36
25,YHWYGYTPQKVI [Peptide 36],1.23
